# Laboratory results taken from ChEMBL document CHEMBL5126592, “Design, synthesis and activity against drug-resistant bacteria evaluation of C-20, C-23 modified 5-O-mycaminosyltylonolide derivatives” (Eur J Med Chem, 2022).
# Activity calls are given as the source filed them. The rule behind the calls is not given here.
# Legend:
# Format in all cases: functional
# Escherichia coli [1] = experiment: Antibacterial activity against Escherichia coli ATCC 25922 incubated for 16 to 20 hrs using 10^7 CFU/ml bacterial inoculum by broth microdilution method; settings: time 16-20 hrs
# Staphylococcus aureus [2] = experiment: Antibacterial activity against Staphylococcus aureus ATCC 29213 incubated for 16 to 20 hrs using 10^6 CFU/ml bacterial inoculum by broth microdilution method; settings: time 16-20 hrs
# Escherichia coli [3] = experiment: Antibacterial activity against Escherichia coli ATCC 25922 incubated for 16 to 20 hrs in presence of 10% foetal bovine serum by broth microdilution method; settings: time 16-20 hrs
# Staphylococcus aureus [4] = experiment: Antibacterial activity against Staphylococcus aureus ATCC 29213 incubated for 16 to 20 hrs using 10^3 CFU/ml bacterial inoculum by broth microdilution method; settings: time 16-20 hrs
# Escherichia coli [5] = experiment: Antibacterial activity against Escherichia coli ATCC 25922 incubated for 16 to 20 hrs using 10^3 CFU/ml bacterial inoculum by broth microdilution method; settings: time 16-20 hrs
# Klebsiella pneumoniae = experiment: Antibacterial activity against Klebsiella pneumoniae ATCC 13883 incubated for 16 to 20 hrs by broth microdilution method; settings: time 16-20 hrs
# Staphylococcus aureus [6] = experiment: Antibacterial activity against Staphylococcus aureus ATCC 25923 incubated for 16 to 20 hrs by broth microdilution method; settings: time 16-20 hrs
# [7] = tested on: Streptococcus dysgalactiae; experiment: Antibacterial activity against Streptococcus dysgalactiae incubated for 16 to 20 hrs by broth microdilution method; settings: time 16-20 hrs
# Staphylococcus aureus [8] = experiment: Antibacterial activity against Staphylococcus aureus ATCC 29213 at pH 8.6 incubated for 16 to 20 hrs in absence of foetal bovine serum by broth microdilution method; settings: time 16-20 hrs
# Cronobacter sakazakii = experiment: Antibacterial activity against Cronobacter sakazakii ATCC 29544 incubated for 16 to 20 hrs by broth microdilution method; settings: time 16-20 hrs
# Escherichia coli [9] = experiment: Antibacterial activity against Escherichia coli ATCC 25922 incubated for 16 to 20 hrs in presence of 25% foetal bovine serum by broth microdilution method; settings: time 16-20 hrs
# Staphylococcus aureus [10] = experiment: Antibacterial activity against Staphylococcus aureus incubated for 16 to 20 hrs by broth microdilution method; settings: time 16-20 hrs
# Escherichia coli [11] = experiment: Antibacterial activity against Escherichia coli ATCC 25922 incubated for 16 to 20 hrs using 10^5 CFU/ml bacterial inoculum by broth microdilution method; settings: time 16-20 hrs
# Escherichia coli [12] = experiment: Antibacterial activity against Escherichia coli ATCC 25922 incubated for 16 to 20 hrs using 10^4 CFU/ml bacterial inoculum by broth microdilution method; settings: time 16-20 hrs
# Staphylococcus aureus [13] = experiment: Antibacterial activity against Staphylococcus aureus ATCC 29213 incubated for 16 to 20 hrs using 10^7 CFU/ml bacterial inoculum by broth microdilution method; settings: time 16-20 hrs
# Staphylococcus aureus [14] = experiment: Antibacterial activity against Staphylococcus aureus ATCC 29213 at pH 8.6 incubated for 16 to 20 hrs in presence of 10% foetal bovine serum by broth microdilution method; settings: time 16-20 hrs
# Escherichia coli [15] = experiment: Antibacterial activity against Escherichia coli ATCC 25922 incubated for 16 to 20 hrs by broth microdilution method; settings: time 16-20 hrs
# Pseudomonas aeruginosa = experiment: Antibacterial activity against Pseudomonas aeruginosa LTP-3 incubated for 16 to 20 hrs by broth microdilution method; settings: time 16-20 hrs
# Staphylococcus aureus [16] = experiment: Antibacterial activity against Staphylococcus aureus ATCC 29213 at pH 8.6 incubated for 16 to 20 hrs in presence of 25% foetal bovine serum by broth microdilution method; settings: time 16-20 hrs
# Staphylococcus aureus [17] = experiment: Antibacterial activity against Staphylococcus aureus ATCC 29213 incubated for 16 to 20 hrs using 10^5 CFU/ml bacterial inoculum by broth microdilution method; settings: time 16-20 hrs
# Staphylococcus aureus [18] = experiment: Antibacterial activity against Staphylococcus aureus ATCC 29213 incubated for 16 to 20 hrs using 10^4 CFU/ml bacterial inoculum by broth microdilution method; settings: time 16-20 hrs
# Staphylococcus aureus [19] = experiment: Antibacterial activity against Staphylococcus aureus ATCC 29213 at pH 8.6 incubated for 16 to 20 hrs in presence of 5% foetal bovine serum by broth microdilution method; settings: time 16-20 hrs
# Escherichia coli [20] = experiment: Antibacterial activity against Escherichia coli ATCC 25922 incubated for 16 to 20 hrs in absence of foetal bovine serum by broth microdilution method; settings: time 16-20 hrs
# Enterococcus faecium = experiment: Antibacterial activity against Enterococcus faecium incubated for 16 to 20 hrs by broth microdilution method; settings: time 16-20 hrs
# Escherichia coli [21] = experiment: Antibacterial activity against Escherichia coli ATCC 25922 incubated for 16 to 20 hrs in presence of 5% foetal bovine serum by broth microdilution method; settings: time 16-20 hrs
# Escherichia coli [22] = experiment: Antibacterial activity against Escherichia coli ATCC 25922 incubated for 16 to 20 hrs in presence of 50% foetal bovine serum by broth microdilution method; settings: time 16-20 hrs
# Escherichia coli [23] = experiment: Antibacterial activity against Escherichia coli incubated for 16 to 20 hrs by broth microdilution method; settings: time 16-20 hrs
# [24] = tested on: Staphylococcus chromogenes; experiment: Antibacterial activity against Staphylococcus chromogenes incubated for 16 to 20 hrs by broth microdilution method; settings: time 16-20 hrs
# Escherichia coli [25] = experiment: Antibacterial activity against Escherichia coli ATCC 25922 incubated for 16 to 20 hrs using 10^6 CFU/ml bacterial inoculum by broth microdilution method; settings: time 16-20 hrs
# Staphylococcus aureus [26] = experiment: Antibacterial activity against Staphylococcus aureus ATCC 29213 at pH 8.6 incubated for 16 to 20 hrs in presence of 50% foetal bovine serum by broth microdilution method; settings: time 16-20 hrs
# Escherichia coli [27] = experiment: Induction of drug resistance in Escherichia coli ATCC 25922 assessed as increase in MIC measured after 30 passages by broth microdilution method
SMILES,MIC (Escherichia coli [1]),MIC (Staphylococcus aureus [2]),MIC (Escherichia coli [3]),MIC (Staphylococcus aureus [4]),MIC (Escherichia coli [5]),MIC (Klebsiella pneumoniae),MIC (Staphylococcus aureus [6]),MIC [7],MIC (Cronobacter sakazakii),MIC (Escherichia coli [9]),MIC (Staphylococcus aureus [10]),MIC (Escherichia coli [11]),MIC (Escherichia coli [12]),MIC (Staphylococcus aureus [14]),MIC (Escherichia coli [15]),MIC (Pseudomonas aeruginosa),MIC (Staphylococcus aureus [16]),MIC (Enterococcus faecium),MIC (Escherichia coli [23]),MIC [24],also measured
CC[C@H]1OC(=O)C[C@@H](O)[C@H](C)[C@@H](O[C@@H]2O[C@H](C)[C@@H](O[C@H]3C[C@@](C)(O)[C@@H](O)[C@H](C)O3)[C@H](N(C)C)[C@H]2O)[C@@H](CC=O)C[C@@H](C)C(=O)/C=C/C(C)=C/[C@@H]1CO[C@@H]1O[C@H](C)[C@@H](O)[C@@H](OC)[C@H]1OC [TYLOSIN],> 32 µg/mL,1 µg/mL,> 32 µg/mL,0.5 µg/mL,> 32 µg/mL,> 32 µg/mL,0.5 µg/mL,1 µg/mL,> 32 µg/mL,> 32 µg/mL,0.25 µg/mL,> 32 µg/mL,> 32 µg/mL,> 32 µg/mL,> 32 µg/mL,32 µg/mL,> 32 µg/mL,1 µg/mL,> 32 µg/mL,0.5 µg/mL,MIC (Staphylococcus aureus [8]): 2 µg/mL; MIC (Staphylococcus aureus [13]): 1 µg/mL; MIC (Staphylococcus aureus [17]): 0.5 µg/mL; MIC (Staphylococcus aureus [18]): 0.5 µg/mL; MIC (Staphylococcus aureus [19]): > 32 µg/mL; MIC (Escherichia coli [20]): > 32 µg/mL; MIC (Escherichia coli [21]): > 32 µg/mL; MIC (Escherichia coli [22]): > 32 µg/mL; MIC (Escherichia coli [25]): > 32 µg/mL; MIC (Staphylococcus aureus [26]): > 32 µg/mL
C[C@@H](O)[C@H]1C(=O)N2C(C(=O)O)=C(S[C@@H]3CN[C@H](C(=O)N(C)C)C3)[C@H](C)[C@H]12 [MEROPENEM],< 0.0625 µg/mL,,< 0.0625 µg/mL,,< 0.0625 µg/mL,< 0.0625 µg/mL,0.0625 µg/mL,8 µg/mL,0.0625 µg/mL,< 0.0625 µg/mL,< 0.0625 µg/mL,< 0.0625 µg/mL,< 0.0625 µg/mL,,0.125 µg/mL,< 0.0625 µg/mL,,8 µg/mL,< 0.0625 µg/mL,0.0625 µg/mL,MIC (Escherichia coli [20]): < 0.0625 µg/mL; MIC (Escherichia coli [21]): < 0.0625 µg/mL; MIC (Escherichia coli [22]): < 0.0625 µg/mL; MIC (Escherichia coli [25]): < 0.0625 µg/mL
CC(=O)NC[C@H]1CN(c2ccc(N3CCOCC3)c(F)c2)C(=O)O1 [LINEZOLID],,1 µg/mL,,0.25 µg/mL,,> 32 µg/mL,,2 µg/mL,> 32 µg/mL,,1 µg/mL,,,> 32 µg/mL,> 32 µg/mL,32 µg/mL,> 32 µg/mL,2 µg/mL,32 µg/mL,1 µg/mL,Activity (Escherichia coli [27]): Active; MIC (Staphylococcus aureus [17]): 0.5 µg/mL; MIC (Staphylococcus aureus [18]): 0.25 µg/mL; MIC (Staphylococcus aureus [19]): > 32 µg/mL; MIC (Staphylococcus aureus [26]): > 32 µg/mL
